As a reminder, the inhibition is the percentage by which the read-out fell short of the control. A word on the viability: it is the share of living cells, or the viability signal relative to a control. Low readings indicate more harm to the cells, high ones less harm to the cells.

Data on 2 compounds can be found in patent publication US20220041627A1, “PRODRUGS OF ANTI-CANCER AND ANTI-AUTOIMMUNE DISEASES THERAPEUTIC AGENTS, AND METHODS OF MAKING AND USE THEREOF” (UNIVERSITY OF MARYLAND, BALTIMORE, priority 2018, published 2022).

Molecules are shown by their SMILES. Bounds are passed on as bounds.

Data set [1] deals with SK-MEL-5. Description: NCI-60 growth inhibition, SK-MEL-5. The format is cell-based, human. From the text: (§1) The anticancer effects of compounds 1a-1b against 60 human cancer cell lines (the Developmental Therapeutics Program of NCI) were studied. The cell lines were derived from different cancer types including leukemia, non-small-cell lung cancer, colon cancer, CNS cancer, melanoma, ovarian cancer, renal cancer, prostate cancer, and breast cancer (Table 1; the assay protocol can be found at: https://dtp.cancer.gov/default.htm). Compound 1a caused over 50% growth inhibition for most tested cell lines. […] Without wishing to be bound by any particular theory, it is believed that the differences in the anticancer effects between compounds 1a and 1b may be due to the more favorable cell membrane permeability of the boronic ester 1a.

Data set [2] concerns OVCAR-4. Description: NCI-60 growth inhibition, OVCAR-4. The format is cell-based, human.
Text: as §1

Data set [3] concerns OVCAR-8. Description: NCI-60 growth inhibition, OVCAR-8. In kind it is cell-based, human.
Text: as §1

Data set [4] is described as follows: Cell viability (CCK8) in normal MEC1 cells. In kind it is cell-based. The procedure: (§2) FIGS. 2A and 2B illustrate the anticancer effects and selectivity of 5-FU and compounds 1a-1c. Cell viability was analyzed after the breast cancer MCF7 cells (FIG. 2A) and normal MEC1 cells (FIG. 2B) were treated with 5-FU or compounds 1a-1c at different concentrations. Data are presented as mean±SD, n=4.
(§3) Cell Counting Kit-8 (CCK8, Dojingo) was used to carry out the cytotoxicity assessment of the prodrugs. Seeded cells were treated with varying compound concentrations for 48-72 h and the CCK8 kit was used to measure the cytotoxicity. For NAC experiments, this ROS scavenger was pre-incubated with the cells for 2 h and then co-incubated with the prodrugs for additional 48 hours unless otherwise noted.
(§4) The anticancer effects of new compounds 1a and 1b were tested using the breast cancer MCF7 cells and normal MEC1 cells (FIGS. 2A and 2B). […] These differential killing results highlight the specificity of new prodrugs 1a-1b for cancer cells over normal cells. […] To further verify the role of ROS in the drug release process, the MTT assays was performed, using MCF7 cells pretreated with the ROS scavenger N-Acetyl-Cysteine (NAC).

Data set [5] concerns wild-type C57BL/6 male mice. Description: Acute toxicity in mice. In kind it is in vivo. Particulars: 100 mg/kg i.p. every other day for 15 days, compared to vehicle group. The protocol:
FIGS. 5A and 5B illustrate the survival rate (FIG. 5A) and body weight (FIG. 5B) curves of the various groups of mice. […] Mice were treated every other day by intraperitoneal (i.p.) injection for 15 days, the survival and body weights of the mice were recorded after treatment.
Mice were treated every other day by intraperitoneal (i.p.) injection for 15 days, the survival and body weights of the mice were recorded after treatment.

Data set [6] has as its system breast cancer MCF7 cells. Description: Cell viability (CCK8) in breast cancer MCF7 cells. The format is cell-based, human. To be noted: different concentrations, compared with parent drug 5-FU. The protocol: as §2, §3, §4

For `O=c1[nH]c(=O)n(Cc2ccc(B(O)O)cc2)cc1F` [Compound 1b, (4-((5-Fluoro-2,4-dioxo-3,4-dihydropyrimidin-I(2H)-yl)methyl)phenyl)boronic acid], the “Growth Inhibition (%)” value in data set [1] (Melanoma SK-MEL-5, 50 μM, 48 h) was found to be 10%; in data set [2] (Ovarian Cancer OVCAR-4, 50 μM, 48 h), 2%; in data set [3] (Ovarian Cancer OVCAR-8, 50 μM, 48 h) it was 6%.

On to `CC1(C)OB(c2ccc(Cn3cc(F)c(=O)[nH]c3=O)cc2)OC1(C)C` [Compound 1a, 5-Fluoro-1-(4-(4,4,5,5-tetramethyl-1,3,2-dioxaborolan-2-yl)benzyl)pyrimidine-2,4(1H,3H)-dione], for which the inhibition at 50 µM in data set [1] (Homo sapiens, Melanoma SK-MEL-5, 48 h) was determined as 61%; in data set [2] (Homo sapiens, Ovarian Cancer OVCAR-4, 48 h), 30%; in data set [3] (Homo sapiens, Ovarian Cancer OVCAR-8, 48 h) it was 25%. The compound also registered a viability at 100 µM in data set [4] of over 95%. The body weights entry in data set [5] is given as “no obvious changes”. The “antiproliferative activity / anticancer effects” value in data set [6] is given as “comparable antiproliferative activity as that of the parent drug 5-FU”.
